From patent US20070276045A1, “Anti-Bacterial Compounds” (priority 2004, published 2007)
≈ marks a conversion by molar mass, not a printed value. Like-named read-outs stand apart in the source and are kept apart here.

Key:
C. xerosis DSM 20170 [1] = assay: Bacteriostatic activity (MIC), microtiter broth turbidity; assay type: cell-based; conditions: Corynebacterium xerosis, read-out: MIC (minimal inhibitory concentration)
From the text: (§1) The bacteriostatic effects of the compounds of the present invention are compared with those of known anti-bacterial agents against human skin bacteria. Typical bacteria (Corynebacterium and Staphylococcus strains) isolated from the human axilla and commercially available strains are used.
(§2) The different axilla bacteria are isolated from the human axilla according to techniques known in the art, in particular according to standard microbiological practice. They are taxonomically identified by cell morphology, gram-reaction and biochemical tests included in the Api coryne test kit (BioMerieux, France). Strain Staphylococcus epidermidis Ax25 is identified by fatty acid methyl ester analysis (FAME; German type strain collection DSMZ, Germany) . […] The strains are maintained on Tryptic soy broth plates, this standard medium being supplemented with 5 g per Litre of Polyoxyethylene Sorbitan Monooleate (Tween™ 80). Plates are incubated at 36° C. for a period of 48 hours. The bacteria are then swabbed from the plates and suspended in 4 ml of Muller-Hinton broth supplemented with 100 mg of Tween™ 80 per Litre (MH-Tween) and incubated again at 36° C. for 16 hours. Following incubation the bacterial suspensions are diluted in MH-Tween to obtain a final cell density of 10^7 colony forming units per ml. These diluted suspensions of the different test organisms are distributed to different columns of a microtiter plate, 100 μl per well. The test compounds are dissolved in dimethylsulfoxide (DMSO) at various test concentrations and 2.5 μl of these different DMSO solutions are added to the different wells of the test plates. The plates are covered with plastic films and incubated for 24 h at 36° C. with shaking at 250 rpm. The turbidity developing in the microtiter platesi then examined after 24 h to determine microbial growth.

Escherichia coli DSM 682 = assay: as above; assay type: cell-based; conditions: read-out: MIC (minimal inhibitory concentration)
From the text: as §1, §2

S. epidermidis Ax 25 [2] = assay: as above; assay type: cell-based; conditions: Staphylococcus epidermidis, read-out: MIC (minimal inhibitory concentration)
From the text: as §1, §2

[3] = tested on: Staphylococcus aureus DSM 799; assay: as above; assay type: cell-based; conditions: read-out: MIC (minimal inhibitory concentration)
From the text: as §1, §2

Corynebacterium Ax 7 [4] = assay: as above; assay type: cell-based, Corynebacterium group G; conditions: read-out: MIC (minimal inhibitory concentration)
From the text: as §1, §2

Corynebacterium Ax 15 [5] = assay: as above; assay type: cell-based, Corynebacterium jeikeium; conditions: read-out: MIC (minimal inhibitory concentration)
From the text: as §1, §2

C. xerosis DSM 20170 [6] = assay: Bactericidal activity (MBC), 60 min contact; assay type: cell-based; conditions: Corynebacterium xerosis, DSM20170, 1 h, inoculum completely killed after 60 min incubation, read-out: MBC (minimal bactericidal concentration)
From the text: (§3) The different axilla bacteria are isolated from the human axilla according to techniques known in the art, in particular according to standard microbiological practice. They are taxonomically identified by cell morphology, gram-reaction and biochemical tests included in the Api coryne test kit (BioMerieux, France). Strain Staphylococcus epidermidis Ax25 is identified by fatty acid methyl ester analysis (FAME; German type strain collection DSMZ, Germany) . Escherichia coli DSM 682, Staphylococcus aureus DSM 799, and Corynebacterium xerosis DSM 20170 are obtained from the German-type strain collection. The strains are maintained on Tryptic soy broth plates, this standard medium being supplemented with 5 g per Litre of Polyoxyethylene Sorbitan Monooleate (TweenTM 80). Plates are incubated at 36° C. for a period of 48 hours. The bacteria are then swabbed from the plates and suspended in 4 ml of Muller-Hinton broth supplemented with 100 mg of TweenTM 80 per Litre (MH-Tween) and incubated again at 36° C. for 16 hours. Following incubation the bacterial suspensions are diluted in MH-Tween to obtain a final cell density of 10^7 colony forming units per ml. These diluted suspensions of the different test organisms are distributed to different columns of a microtiter plate, 100 μl per well. The test compounds are dissolved in dimethylsulfoxide (DMSO) at various test concentrations and 2.5 μl of these different DMSO solutions are added to the different wells of the test plates. The plates are covered with plastic films and incubated for 24 h at 36° C. with shaking at 250 rpm. The turbidity developing in the microtiter […] examined after 24 h to determine microbial growth. […] The bacteria are grown, harvested and diluted under the same conditions as described in the example above and added to microtiter plates (100 μl per well), each well containing 2.5 μl of the different DMSO solutions as described above. After 60 min incubation, 0.5 μl of the bacterial culture from each well (corresponding to 5×10^3 cfu in the control treatment) is transferred to a fresh microtiter plate which contained 100 μl per well of fresh medium. The plates are covered with plastic films and incubated for 24 h at 36° C. with shaking at 250 rpm. The turbidity developing in the microtiter plates is then examined after 24 h to determine microbial growth. The minimal concentration of test compounds which completely killed the bacterial inoculum is determined as the minimal bactericidal concentration (MBC).

S. epidermidis Ax 25 [7] = assay: Bactericidal activity (MBC), 60 min contact; assay type: cell-based; conditions: Staphylococcus epidermidis, AX25, 1 h, inoculum completely killed after 60 min incubation, read-out: MBC (minimal bactericidal concentration)
From the text: as §3

Corynebacterium Ax 7 [8] = assay: Bactericidal activity (MBC), 60 min contact; assay type: cell-based, Corynebacterium group G; conditions: AX7, 1 h, inoculum completely killed after 60 min incubation, read-out: MBC (minimal bactericidal concentration)
From the text: as §3

Corynebacterium Ax 15 [9] = assay: Bactericidal activity (MBC), 60 min contact; assay type: cell-based, Corynebacterium jeikeium; conditions: AX15, 1 h, inoculum completely killed after 60 min incubation, read-out: MBC (minimal bactericidal concentration)
From the text: as §3

[10] = Staphylococcus aureus, DSM799, 24 h
[11] = DSM20170, C. xerosis DSM 20170, growth inhibited by at least 80%, 24 h at 36° C.
[12] = DSM682, Escherichia coli DSM 682, growth inhibited by at least 80%, 24 h at 36° C.
[13] = AX25, S. epidermidis Ax 25, growth inhibited by at least 80%, 24 h at 36° C.
[14] = DSM799, Staphylococcus aureus DSM 799, growth inhibited by at least 80%, 24 h at 36° C.
[15] = AX7, Corynebacterium Ax 7, growth inhibited by at least 80%, 24 h at 36° C.
[16] = AX15, Corynebacterium Ax 15, growth inhibited by at least 80%, 24 h at 36° C.

Structure (SMILES)	MIC (C. xerosis DSM 20170 [1]; DSM20170, 24 h)	MIC (Escherichia coli DSM 682; Escherichia coli, DSM682, 24 h)	MIC (S. epidermidis Ax 25 [2]; AX25, 24 h)	MIC [3, 10]	MIC (Corynebacterium Ax 7 [4]; Corynebacterium, AX7, 24 h)	MIC (Corynebacterium Ax 15 [5]; Corynebacterium, AX15, 24 h)	MIC (C. xerosis DSM 20170 [1]; [11])	MIC (Escherichia coli DSM 682; [12])	MIC (S. epidermidis Ax 25 [2]; [13])	MIC [3, 14]	MIC (Corynebacterium Ax 7 [4]; [15])	MIC (Corynebacterium Ax 15 [5]; [16])	MBC (C. xerosis DSM 20170 [6])	MBC (S. epidermidis Ax 25 [7])	MBC (Corynebacterium Ax 7 [8])	MBC (Corynebacterium Ax 15 [9])
CCCCCCCCCCCC(=O)OCC(O)CO (stereo not drawn) [C1, Dodecanoic acid 2,3-dihydroxy-propyl ester, reference compound]	320 µg/mL (≈ 1170 µM)	> 5000 µg/mL	< 80 µg/mL	80 µg/mL (≈ 292 µM)	160 µg/mL (≈ 583 µM)	1250 µg/mL (≈ 4560 µM)	–	–	–	–	–	–	–	–	–	–
CCCCC(CC)COCC(O)CO (stereo not drawn) [C2, 3-(2-Ethyl-hexyloxy)-propane-1,2-diol, reference compound]	630 µg/mL (≈ 3080 µM)	630 µg/mL (≈ 3080 µM)	1250 µg/mL (≈ 6120 µM)	630 µg/mL (≈ 3080 µM)	1250 µg/mL (≈ 6120 µM)	1250 µg/mL (≈ 6120 µM)	–	–	–	–	–	–	–	–	–	–
CC(C)=CCCC(C)=CCCC(C)=CCO [C3, Farnesol, reference compound]	–	–	–	–	–	–	80 µg/mL (≈ 360 µM)	> 10000 µg/mL	160 µg/mL (≈ 720 µM)	160 µg/mL (≈ 720 µM)	140 µg/mL (≈ 630 µM)	160 µg/mL (≈ 720 µM)	–	–	–	–
Oc1cc(Cl)ccc1Oc1ccc(Cl)cc1Cl [C4, Triclosan, reference compound]	15 µg/mL (≈ 51.8 µM)	5 µg/mL (≈ 17.3 µM)	0.15 µg/mL (≈ 0.518 µM)	5 µg/mL (≈ 17.3 µM)	30 µg/mL (≈ 104 µM)	30 µg/mL (≈ 104 µM)	–	–	–	–	–	–	–	–	–	–
CC(COCC(=O)O)Cc1ccc(C(C)(C)C)cc1 (stereo not drawn) [compound 1, [3-(4-tert.-Butyl-phenyl)-2-methyl-propoxy]-acetic acid]	–	–	–	–	–	–	313 µg/mL (≈ 1180 µM)	2500 µg/mL (≈ 9460 µM)	625 µg/mL (≈ 2360 µM)	625 µg/mL (≈ 2360 µM)	625 µg/mL (≈ 2360 µM)	1250 µg/mL (≈ 4730 µM)	2500 µg/mL (≈ 9460 µM)	≥ 5000 µg/mL	2500 µg/mL (≈ 9460 µM)	≥ 5000 µg/mL
CCCCC(CC)COCC(=O)O (stereo not drawn) [compound 4, (2-Ethyl-hexyloxy)-acetic acid]	–	–	–	–	–	–	884 µg/mL (≈ 4700 µM)	2500 µg/mL (≈ 13300 µM)	625 µg/mL (≈ 3320 µM)	625 µg/mL (≈ 3320 µM)	1250 µg/mL (≈ 6640 µM)	1250 µg/mL (≈ 6640 µM)	≥ 5000 µg/mL	≥ 5000 µg/mL	2500 µg/mL (≈ 13300 µM)	≥ 5000 µg/mL
CCCCCCC(CCCC)COCC(=O)O (stereo not drawn) [compound 5, (2-Butyl-octyloxy)-acetic acid]	–	–	–	–	–	–	80 µg/mL (≈ 327 µM)	> 2500 µg/mL	160 µg/mL (≈ 655 µM)	160 µg/mL (≈ 655 µM)	160 µg/mL (≈ 655 µM)	310 µg/mL (≈ 1270 µM)	> 2500 µg/mL	> 2000 µg/mL	1250 µg/mL (≈ 5120 µM)	> 2500 µg/mL
CCCCCCCCC(CCCCCC)COCC(=O)O (stereo not drawn) [compound 6, (2-Hexyl-decyloxy)-acetic acid]	–	–	–	–	–	–	4 µg/mL (≈ 13.3 µM)	> 2500 µg/mL	5 µg/mL (≈ 16.6 µM)	5 µg/mL (≈ 16.6 µM)	5 µg/mL (≈ 16.6 µM)	5 µg/mL (≈ 16.6 µM)	40 µg/mL (≈ 133 µM)	20 µg/mL (≈ 66.6 µM)	20 µg/mL (≈ 66.6 µM)	40 µg/mL (≈ 133 µM)
CCCCC(CC)C(=O)OCC(=O)O (stereo not drawn) [compound 7, 2-Ethyl-hexanoic acid carboxymethyl ester]	–	–	–	–	–	–	1250 µg/mL (≈ 6180 µM)	2500 µg/mL (≈ 12400 µM)	1250 µg/mL (≈ 6180 µM)	1250 µg/mL (≈ 6180 µM)	1250 µg/mL (≈ 6180 µM)	1250 µg/mL (≈ 6180 µM)	> 2500 µg/mL	> 2500 µg/mL	> 2500 µg/mL	> 2500 µg/mL
CCCCCCC(CCCC)C(=O)OCC(=O)O (stereo not drawn) [compound 8, 2-Butyl-octanoic acid carboxymethyl ester]	–	–	–	–	–	–	80 µg/mL (≈ 310 µM)	2500 µg/mL (≈ 9680 µM)	1250 µg/mL (≈ 4840 µM)	80 µg/mL (≈ 310 µM)	160 µg/mL (≈ 619 µM)	80 µg/mL (≈ 310 µM)	2500 µg/mL (≈ 9680 µM)	1250 µg/mL (≈ 4840 µM)	1250 µg/mL (≈ 4840 µM)	2500 µg/mL (≈ 9680 µM)
CCCCCCCCC(CCCCCC)C(=O)OCC(=O)O (stereo not drawn) [compound 9, 2-Hexyl-decanoic acid carboxymethyl ester]	–	–	–	–	–	–	7 µg/mL (≈ 22.3 µM)	> 2500 µg/mL	10 µg/mL (≈ 31.8 µM)	5 µg/mL (≈ 15.9 µM)	5 µg/mL (≈ 15.9 µM)	5 µg/mL (≈ 15.9 µM)	80 µg/mL (≈ 254 µM)	40 µg/mL (≈ 127 µM)	40 µg/mL (≈ 127 µM)	80 µg/mL (≈ 254 µM)
CCCCCCC(CCCC)C(=O)NCC(=O)O (stereo not drawn) [compound 10, (2-Butyl-octanoylamino)-acetic acid]	–	–	–	–	–	–	630 µg/mL (≈ 2450 µM)	1250 µg/mL (≈ 4860 µM)	1250 µg/mL (≈ 4860 µM)	1250 µg/mL (≈ 4860 µM)	1250 µg/mL (≈ 4860 µM)	1250 µg/mL (≈ 4860 µM)	2500 µg/mL (≈ 9710 µM)	2500 µg/mL (≈ 9710 µM)	1250 µg/mL (≈ 4860 µM)	> 2500 µg/mL
CCCCCCCCC(CCCCCC)C(=O)NCC(=O)O (stereo not drawn) [compound 11, (2-Hexyl-decanoylamino)-acetic acid]	–	–	–	–	–	–	≤ 19 µg/mL	≥ 5000 µg/mL	39 µg/mL (≈ 124 µM)	55 µg/mL (≈ 175 µM)	≤ 19 µg/mL	78 µg/mL (≈ 249 µM)	313 µg/mL (≈ 998 µM)	≥ 5000 µg/mL	156 µg/mL (≈ 498 µM)	313 µg/mL (≈ 998 µM)
